According to ChEMBL document CHEMBL1150254, “Dihydroxystyrene metabolites from an association of the sponges Poecillastra wondoensis and Jaspis sp” (J Nat Prod, 2008):
Activity calls are given as the source filed them. No cut-off for these calls is given here.

Assays:
[1] = Inhibition of Staphylococcus aureus sortase A
[2] = biological target: Isocitrate lyase (Candida albicans, UniProt Q9P8Q7); assay: Inhibition of Candida albicans isocitrate lyase
[3] = system: A549; assay: Antitumor activity against human A549 cells; type: functional, cell-based
[4] = system: K562; assay: Antitumor activity against human K562 cells; type: functional, cell-based

Isocitrate lyase, sequence (Q9P8Q7 whole entry): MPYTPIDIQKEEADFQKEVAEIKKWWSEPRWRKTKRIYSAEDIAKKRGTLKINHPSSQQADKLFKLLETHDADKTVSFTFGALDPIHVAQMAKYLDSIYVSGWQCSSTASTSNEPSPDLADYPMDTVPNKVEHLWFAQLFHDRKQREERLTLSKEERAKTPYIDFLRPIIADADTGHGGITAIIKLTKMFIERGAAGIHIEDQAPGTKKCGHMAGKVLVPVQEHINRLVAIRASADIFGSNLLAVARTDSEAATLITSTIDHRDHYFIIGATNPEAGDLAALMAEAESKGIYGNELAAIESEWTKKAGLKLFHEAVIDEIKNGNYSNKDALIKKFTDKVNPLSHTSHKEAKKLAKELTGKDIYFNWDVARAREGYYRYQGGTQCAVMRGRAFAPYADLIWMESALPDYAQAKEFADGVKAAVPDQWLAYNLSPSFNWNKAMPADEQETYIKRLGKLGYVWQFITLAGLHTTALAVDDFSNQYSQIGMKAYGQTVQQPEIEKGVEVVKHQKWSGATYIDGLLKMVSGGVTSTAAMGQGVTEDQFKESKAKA

SMILES	IC50 [1] [µg/mL]	IC50 [2] [µM]	Activity [3]	Activity [4]
O=S(=O)([O-])O/C=C/c1ccc2c(c1)OC(c1ccc(O)c(O)c1)C(OS(=O)(=O)[O-])O2.[Na+].[Na+] (centres undefined)	> 200	341	–	–
COC(OC)C(OC)c1ccc(O)c(O)c1 (centres undefined)	> 200	126	–	–
CN(C)C(=N)N.CN(C)C(=N)N.O=S(=O)(O)O/C=C/c1ccc(OC2Oc3ccc(/C=C/OS(=O)(=O)O)cc3OC2c2ccc(O)c(O)c2)c(O)c1 (centres undefined) [listing 1 of 2 here]	> 200	> 259	–	–
CN(C)CCc1cn(C(c2ccc(O)c(O)c2)C2Oc3ccc(/C=C\OS(=O)(=O)O)cc3O2)cn1 (centres undefined)	–	–	inactive	inactive
CN(C)CCc1cn(C(c2ccc(O)c(O)c2)C2Oc3ccc(/C=C/OS(=O)(=O)[O-])cc3O2)cn1.Cl.[Na+] (mixture of isomers)	> 200	> 356	–	–
O=S(=O)(O)O/C=C/c1ccc2c(c1)OC(C(O)c1ccc(O)c(O)c1)O2 (centres undefined)	–	–	inactive	inactive
O=S(=O)([O-])O/C=C/c1ccc(OC2Oc3ccc(/C=C/OS(=O)(=O)[O-])cc3OC2c2ccc(O)c(O)c2)c(O)c1.[Na+].[Na+] (centres undefined)	163.5	271	–	–
CN(C)C(=N)N.O=S(=O)(O)O/C=C/c1ccc2c(c1)OC(C(O)c1ccc(O)c(O)c1)O2 (centres undefined) [listing 1 of 2 here]	–	–	inactive	inactive
CN(C)CCc1cn(C(c2ccc(O)c(O)c2)C2Oc3ccc(/C=C/OS(=O)(=O)[O-])cc3O2)cn1.[Na+] (centres undefined)	> 200	> 381	–	–
C=C(CC(=O)O)C(=O)O [ITACONATE]	–	44.6	–	–
CN(C)C(=N)N.CN(C)C(=N)N.O=S(=O)(O)O/C=C/c1ccc(OC2Oc3ccc(/C=C/OS(=O)(=O)O)cc3OC2c2ccc(O)c(O)c2)c(O)c1 (centres undefined) [listing 2 of 2 here]	–	–	inactive	inactive
CN(C)C(=N)N.O=S(=O)(O)O/C=C/c1ccc2c(c1)OC(C(O)c1ccc(O)c(O)c1)O2 (centres undefined) [listing 2 of 2 here]	82.4	> 426	–	–
O=S(=O)([O-])O/C=C/c1ccc(O)c(O)c1.[Na+] [JASPISIN]	14.6	> 787	–	–
O=S(=O)([O-])O/C=C/c1ccc2c(c1)OC(C(O)c1ccc(O)c(O)c1)O2.[Na+] (centres undefined)	> 200	306	–	–
O=S(=O)([O-])O/C=C/c1ccc(OC2Oc3cc(/C=C/OS(=O)(=O)[O-])ccc3OC2c2ccc(O)c(O)c2)c(O)c1.[Na+].[Na+] (centres undefined)	> 200	64.2	inactive	inactive
O=S(=O)(O)O/C=C/c1ccc(OC2Oc3ccc(/C=C/OS(=O)(=O)O)cc3OC2c2ccc(O)c(O)c2)c(O)c1 (centres undefined)	–	–	inactive	inactive
O=S(=O)([O-])O/C=C\c1ccc(O)c(O)c1.[Na+] [ISOJASPISIN]	34.2	> 787	–	–
CN(C)CCc1cn(C(c2ccc(O)c(O)c2)C2Oc3ccc(/C=C\OS(=O)(=O)[O-])cc3O2)cn1.Cl.[Na+] (centres undefined)	68.3	164	–	–
CN(C)CCc1cn(C(c2ccc(O)c(O)c2)C2Oc3ccc(/C=C\OS(=O)(=O)[O-])cc3O2)cn1.[Na+] (centres undefined)	> 200	91.3	–	–
